Measured values from US8993781B2, “Fluorescent boron-substituted dipyrromethenes and use thereof for diagnosis” (Centre National de la Recherche Scientifique, priority 2008, dated 2015).

Tests used:
PC12 cells = experiment: Spectral index of the labeled amyloid peptide on PC12 cells preincubated with unlabeled beta-amyloid peptide; format: cell-based, rat; details: PC12 cells preincubated 12 hours with 100 or 250 nM unlabeled peptide, FIG. 5, 4 independent experiments in triplicate
Method: PC12 cells (derived from male rat medullo-adrenal gland tumor) are inoculated into glass-bottomed Petri dishes previously treated with collagen and polyornithine. They are cultured for 7 days in an atmosphere containing 5% of CO2 at 37° C. in RPMI 1640 medium containing glutamine and supplemented with 10% of horse serum, 5% of fetal calf serum, 50 U/mL of penicillin and 50 μg/mL of streptomycin. To induce the differentiation of the cells, 50 ng/mL of murine neurotrophic growth factor (NGF) 2.5S are added to the medium 24 hours after the inoculation.
The day before the measurement, unlabeled beta-amyloid peptide 1-42 of SEQ. ID. No.: 1 or the corresponding unlabeled reverse peptide (42-1) of SEQ ID No.: 2 is added at different concentrations lying between 10 and 1000 nmol·L^−1.
The following day, this preparation is washed 3 times with Krebs medium at ambient temperature and placed on an inverted microscope coupled with a spectro-fluorimeter. A fluorescence spectrum (excitation 480 nm; emission 495-600 nm) of the base line is recorded before the addition of the labeled amyloid peptide (250 nmol·L^−1). A second fluorescence spectrum is recorded after 10 minutes of incubation.
The base line spectrum is subtracted from the fluorescence spectrum of the labeled amyloid peptide. […] The ratio of the amplitude (measured graphically or else with the deconvolution software) of the Gaussian curves centered respectively at 525 nm and 540 nm defines a spectral index describing the distribution of the spectrum
The PC12 cells are preincubated for 12 hours in the presence of unlabeled beta-amyloid peptide 1-42 or 42-1 then rinsed before being placed under a microscope coupled to a spectrofluorimeter. A first spectrum (base line) is recorded.
Next, the labeled beta-amyloid peptide is added. A spectrum is recorded 10 minutes after the addition of the fluorescent compound.
The spectral index is the ratio between the amplitude of the first and that of the second Gaussian calculated by deconvolution (see FIG. 4).

rat erythrocytes = experiment: Spectral index of the labeled amyloid peptide on rat erythrocytes preincubated with unlabeled beta-amyloid peptide; format: cell-based; details: rat erythrocytes incubated 2 hours at 37° C. with unlabeled peptide (10-1000 nmol·L^-1); FIG. 6
Method: A sample of rat blood (1 to 3 ml) is collected in a heparinized tube. The sample is diluted with Krebs medium then centrifuged three times discarding the buffer layer (“buffy coat”). The erythrocytes obtained are next incubated at 37° C. for 2 hours in the presence of the unlabeled beta-amyloid peptide 1-42 or the corresponding unlabeled reverse peptide (42-1) at various concentrations (10-1000 nmol·L^−1). After an additional washing, the cells are placed in a spectro-fluorimeter and a fluorescence spectrum (excitation 480 nm; emission 495-600 nm) of the base line is recorded before the addition of the labeled amyloid peptide (250 nmol·L^−1). A second fluorescence spectrum is recorded after 10 minutes of incubation in the presence of the labeled amyloid peptide.
The base line spectrum is subtracted from the fluorescence spectrum of the labeled beta-amyloid peptide. The spectrum obtained is broken down into 4 component Gaussian curves by deconvolution and non-linear regression. The ratio of the amplitude of the Gaussian centered around 510 nm to the amplitude of the Gaussian centered around 530 nm is calculated. Its value varies as a function of the concentration of unlabeled beta-amyloid peptide 1-42 in the presence of which the cells were incubated as illustrated in FIG. 6.

Row | Substance | change in the value of the spectral index of the labeled amyloid peptide induced by preincubation with unlabeled peptide (PC12 cells) | change in the value of the spectral index of the labeled amyloid peptide induced by preincubation with unlabeled peptide (PC12 cells; listed as β-amyloid peptide 42-1) | value of the spectral index (ratio of Gaussian amplitudes around 510 nm and 530 nm) of the labeled amyloid peptide after preincubation with unlabeled peptide (rat erythrocytes)
1 | beta-amyloid peptide 42-1: corresponding unlabeled reverse peptide (42-1) of SEQ ID No.: 2, inactive (AIVVGGVMLGIIAGKNSGVDEAFFVLKQHHVEYGSDHRFEAD; listed as Homo sapiens) | no significant effect | absence of change | 
2 | beta-amyloid peptide 1-42: unlabeled human beta-amyloid peptide 1-42 of SEQ ID No.: 1 | increases with the increase in concentration of peptide preincubated |  | increases as a function of the concentration
